Target: T1, ERα (Homo sapiens, UniProt P03372)
T1 construct: host or cells: MCF7
T1 sequence (P03372 1-595): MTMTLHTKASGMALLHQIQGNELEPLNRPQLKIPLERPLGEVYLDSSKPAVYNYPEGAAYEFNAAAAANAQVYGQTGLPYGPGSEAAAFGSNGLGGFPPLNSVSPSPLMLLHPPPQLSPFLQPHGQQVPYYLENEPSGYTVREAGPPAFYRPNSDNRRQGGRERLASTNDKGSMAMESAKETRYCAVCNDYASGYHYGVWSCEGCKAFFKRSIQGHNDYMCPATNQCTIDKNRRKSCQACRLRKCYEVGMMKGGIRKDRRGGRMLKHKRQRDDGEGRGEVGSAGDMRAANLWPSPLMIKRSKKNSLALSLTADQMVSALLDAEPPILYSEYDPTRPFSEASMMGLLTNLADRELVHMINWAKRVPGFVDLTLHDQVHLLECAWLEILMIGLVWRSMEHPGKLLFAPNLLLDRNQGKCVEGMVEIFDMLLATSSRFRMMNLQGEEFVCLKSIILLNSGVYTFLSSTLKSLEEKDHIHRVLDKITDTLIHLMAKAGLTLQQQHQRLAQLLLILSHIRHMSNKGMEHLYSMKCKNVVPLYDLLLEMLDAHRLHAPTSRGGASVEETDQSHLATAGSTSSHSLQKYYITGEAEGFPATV
Test: Estrogen receptor degradation activity: breast cancer cell ERα in cell western assay (MCF7 cells)
Format: cell-based
Settings: for % Degradation At 0.3 μM: 4 hours, relative to fulvestrant 0.1 μM positive control; for DC50: 4 hours post compound addition, concentration which degrades 50% of the estrogen receptor, read-out: Degradation IC50
Protocol: Test: Estrogen Receptor Degradation Activity Said test involves measuring the in vitro degradation activity of the compounds of the Table 1a. The measurements of the degradation activities were made using a breast cancer cell ERα in cell western assay as described hereunder. MCF7 cells (ATCC) were seeded in 384 wells microplate (collagen coated) at a concentration of 10000 cells/30 μL per well in red phenol free MEM alpha medium (invitrogen) containing 5% charcoal dextran striped FBS. The following day, 9 points serial 1:5 dilution of each compound was added to the cells in 2.5 μL at final concentrations ranging from […] (in table 2), or 0.1 μM for fulvestrant (using as positive control). At 4 hours post compound addition the cells were fixed by adding 25 μL of formalin (final concentration 5% formalin containing 0.1% triton) for 10 minutes at room temperature and then washed twice with PBS. Then, 50 μL of LI-COR blocking buffer containing 0.1% Triton was added to plate for 30 minutes at room temperature. LI-COR blocking buffer was removed and cells were incubated overnight at cold room with 50 μL anti-ER rabbit monoclonal antibody (Thermo scientific MA1-39540) diluted at 1:1000 in LI-COR blocking buffer containing 0.1% tween-20. Wells which were treated with blocking buffer but no antibody were used as background control. Wells were washed twice with PBS (0.1% tween-20) and incubated at 37° C. for 60 minutes in LI-COR (0.1% tween-20) containing goat anti-rabbit antibody Alexa 488 (1:1000) and Syto-64 a DNA dye (2 μM final concentration). Cells were then washed 3 times in PBS and scanned in ACUMEN explorer (TTP-Labtech). Integrated intensities in the green fluorescence and red fluorescence were measured to determine the levels of ERα and DNA respectively. The degradation activity with respect to estrogen receptors in this test is given by the concentration which degrades 50% of the estrogen receptor (or IC50) in nM. […] DMSO−fulvestrant)).

Row | Structure (SMILES) | % Degradation At 0.3 μM [%] | DC50 [nM]
1 | Cc1c(C2=C(c3ccc(C=C4CN(CCC(F)F)C4)cc3)c3ccc(C(=O)O)cc3CCC2)ccc(F)c1F [Example 22, 8-(3,4-difluoro-2-methylphenyl)-9-(4-((1-(3,3-difluoropropyl)azetidin-3-ylidene)methyl)phenyl)-6,7-dihydro-5H-benzo[7]annulene-3-carboxylic acid] | 93 | 0.5
2 | O=C(O)c1ccc2c(c1)CCCC(c1ccc(Cl)cc1C(F)(F)F)=C2c1ccc(C=C2CN(CCCF)C2)cc1 [Example 37, 8-(4-chloro-2-(trifluoromethyl)phenyl)-9-(4-((1-(3-fluoropropyl)azetidin-3-ylidene)methyl)phenyl)-6,7-dihydro-5H-benzo[7]annulene-3-carboxylic acid] | 87 | 0.4
3 | O=C(O)c1ccc2c(c1)CCCC(c1cc(F)cc3c1CCC3)=C2c1ccc(C=C2CN(CCCF)C2)cc1 [Example 4, 8-(6-fluoro-2,3-dihydro-1H-inden-4-yl)-9-(4-((1-(3-fluoropropyl)azetidin-3-ylidene)methyl)phenyl)-6,7-dihydro-5H-benzo[7]annulene-3-carboxylic acid] | 86 | 0.8
4 | Cc1cc(F)ccc1C1=C(c2ccc(C=C3CN(CCCF)C3)cc2F)c2ccc(C(=O)O)cc2CCC1 [Example 11, 8-(4-fluoro-2-methylphenyl)-9-(2-fluoro-4-((1-(3-fluoropropyl)azetidin-3-ylidene)methyl)phenyl)-6,7-dihydro-5H-benzo[7]annulene-3-carboxylic acid] | 91 | 0.3
5 | O=C(O)c1ccc2c(c1)CCCC(c1ncc(Cl)cc1C(F)(F)F)=C2c1ccc(C=C2CN(CCCF)C2)cc1 [Example 35, 8-(5-chloro-3-(trifluoromethyl)pyridin-2-yl)-9-(4-((1-(3-fluoropropyl)azetidin-3-ylidene)methyl)phenyl)-6,7-dihydro-5H-benzo[7]annulene-3-carboxylic acid] | 93 | 0.4
6 | Cc1cc(F)ccc1C1=C(c2cc(C)c(C=C3CN(CCCF)C3)c(F)c2)c2ccc(C(=O)O)cc2CCC1 [Example 28, 8-(4-fluoro-2-methylphenyl)-9-(3-fluoro-4-((1-(3-fluoropropyl)azetidin-3-ylidene)methyl)-5-methylphenyl)-6,7-dihydro-5H-benzo[7]annulene-3-carboxylic acid] | 90 | 1
7 | Cc1cc(F)ccc1C1=C(c2c(C)cc(C=C3CN(CCCF)C3)cc2F)c2ccc(C(=O)O)cc2CCC1.Cl [Example 62, 8-(4-fluoro-2-methylphenyl)-9-(2-fluoro-4-((1-(3-fluoropropyl)azetidin-3-ylidene)methyl)-6-methylphenyl)-6,7-dihydro-5H-benzo[7]annulene-3-carboxylic acid hydrochloride] | 99 | 0.5
8 | O=C(O)c1ccc2c(c1)CCCC(c1ccc(Cl)cc1Cl)=C2c1c(F)cc(C=C2CN(CCCF)C2)cc1F [Example 73, 8-(2,4-dichlorophenyl)-9-(2,6-difluoro-4-((1-(3-fluoropropyl)azetidin-3-ylidene)methyl)phenyl)-6,7-dihydro-5H-benzo[7]annulene-3-carboxylic acid] | 98 | 0.3
9 | Cl.O=C(O)c1ccc2c(c1)CCC(c1ccc(Cl)cc1Cl)=C2c1ccc(C=C2CN(CCCF)C2)cc1 [Example 106, 6-(2,4-dichlorophenyl)-5-(4-((1-(3-fluoropropyl)azetidin-3-ylidene)methyl)phenyl)-7,8-dihydronaphthalene-2-carboxylic acid hydrochloride] | 93 | 1
10 | O=C(O)c1ccc2c(c1)CCCC(c1cccc(Cl)c1C(F)(F)F)=C2c1ccc(C=C2CN(CCC(F)(F)F)C2)cc1 [Example 107, 8-(3-chloro-2-(trifluoromethyl)phenyl)-9-(4-((1-(3,3,3-trifluoropropyl)azetidin-3-ylidene)methyl)phenyl)-6,7-dihydro-5H-benzo[7]annulene-3-carboxylic acid] | 93 | 1.3
11 | Cc1cc(F)ccc1C1=C(c2cc(F)c(C=C3CN(CCCF)C3)cc2F)c2ccc(C(=O)O)cc2CCC1.Cl [Example 65, 9-(2,5-difluoro-4-((1-(3-fluoropropyl)azetidin-3-ylidene)methyl)phenyl)-8-(4-fluoro-2-methylphenyl)-6,7-dihydro-5H-benzo[7]annulene-3-carboxylic acid hydrochloride] | 95 | 0.3

Further lines, results first:

Row | % Degradation At 0.3 μM [%] | DC50 [nM] | Structure (SMILES)
12 | 97 | 20.4 | O=C(O)c1ccc2c(c1)CCCC(c1ccc(Cl)cc1Cl)=C2c1ccc(C=C2CN(CCCF)C2)cn1 [Example 159, 8-(2,4-Dichlorophenyl)-9-(5-((1-(3-fluoropropyl)azetidin-3-ylidene)methyl)pyridin-2-yl)-6,7-dihydro-5H-benzo[7]annulene-3-carboxylic acid]
13 | 90 | 0.4 | Cc1ccc(C2=C(c3ccc(C=C4CN(CCCF)C4)cc3)c3ccc(C(=O)O)cc3CCC2)cc1C(F)(F)F [Example 144, 9-(4-((1-(3-fluoropropyl)azetidin-3-ylidene)methyl)phenyl)-8-(4-methyl-3-(trifluoromethyl)phenyl)-6,7-dihydro-5H-benzo[7]annulene-3-carboxylic acid]
14 | 94 | 0.4 | O=C(O)c1ccc2c(c1)CCCC(c1ccc(Cl)cc1Cl)=C2c1ncc(C=C2CN(CCCF)C2)cc1F [Example 158, 8-(2,4-Dichlorophenyl)-9-(3-fluoro-5-((1-(3-fluoropropyl)azetidin-3-ylidene)methyl)pyridin-2-yl)-6,7-dihydro-5H-benzo[7]annulene-3-carboxylic acid]
15 | 93 | 0.3 | O=C(O)c1ccc2c(c1)CCCC(C1CC13CCC3)=C2c1ccc(C=C2CN(CCCF)C2)cc1 (stereo not drawn) [Example 176, 9-(4-((1-(3-fluoropropyl)azetidin-3-ylidene)methyl)phenyl)-8-(spiro[2.3]hexan-1-yl)-6,7-dihydro-5H-benzo[7]annulene-3-carboxylic acid]
16 | 88 | 1.7 | COc1cc(C2=C(c3ccc(C=C4CN(CCCF)C4)cc3)c3ccc(C(=O)O)cc3CCC2)cc(C(F)(F)F)c1 [Example 150]
17 | 93 | 0.4 | Cc1cccc(C2=C(c3ccc(C=C4CN(CCCF)C4)cc3)c3ccc(C(=O)O)cc3CCC2)c1C(F)(F)F [Example 118, 9-(4-((1-(3-fluoropropyl)azetidin-3-ylidene)methyl)phenyl)-8-(3-methyl-2-(trifluoromethyl)phenyl)-6,7-dihydro-5H-benzo[7]annulene-3-carboxylic acid]
18 | 96 | 0.3 | O=C([O-])c1ccc2c(c1)CCCC(c1ccc(F)cc1F)=C2c1ccc(C=C2CN(CCCF)C2)cc1F.[Na+] [Example 142, Sodium 8-(2,4-difluorophenyl)-9-(2-fluoro-4-((1-(3-fluoropropyl)azetidin-3-ylidene)methyl)phenyl)-6,7-dihydro-5H-benzo[7]annulene-3-carboxylate]

— patent US12612360B2 (Sanofi, priority 2020, dated 2026)
